# Patent US10760110B2, “Antibiotic testing and screening system” (priority 2017, dated 2020)
# Read-outs that look alike come from different tables or passages of the source.
# Tested on: K. pneumoniae NVT1001 strains with ESBL or AmpC β-lactamase plasmids
# Experiment: Etest MIC of β-lactams, OmpK35/36 loss, ΔramR and/or extended-spectrum β-lactamase and AmpC β-lactamase (Table 8)
# Format: cell-based, Klebsiella pneumoniae
# Conditions: Klebsiella pneumoniae
# Experimental: DNA fragments of the resistance genes along with their flanking regions were amplified from clinical plasmids via PCR with specific primer pairs. The resulting PCR fragments were digested and then cloned into the plasmid pACYC177 or pACYC184. The resulting plasmids were then transformed into K. pneumoniae strain NVT1001 via electroporation. The recombinant bacteria were plated onto LB agar plates containing kanamycin (50 mg/L) or chloramphenicol (50 mg/L), and the presence of the cloned gene was confirmed via PCR and DNA sequencing.
# The MICs of antibiotics were determined using the Etest (Biodisk AB, Sweden) according to the manufacturer's instructions. The MICs from the Etest, which fall between standard two-fold dilutions, were rounded up to the next highest two-fold value. The MICs of ceftazidime and cefotaxime against K. pneumoniae NVT1001 harbouring the pACYC177 plasmid with blaOXA-48 were further determined using a broth microdilution test according to the recommendations of the CLSI,^25 and the results were interpreted according to the breakpoints established by the CLSI in 2017.^25 Meanwhile, due to the lack of CLSI breakpoints in 2016 and 2017, the results for cephalothin were interpreted according to the breakpoints established by the CLSI in 2015,^26 and the results for moxifloxacin were interpreted according to the breakpoints established by the EUCAST in 2017.^27
# [1] = CMY-2 on pACYC177, WT (NVT1001), read-out: MIC
# [2] = CMY-2 on pACYC177, Δ35 (ΔompK35 mutant)
# [3] = CMY-2 on pACYC177, Δ35/36 (ΔompK35/36 mutant)
# [4] = CMY-2 on pACYC177, Δ36 (ΔompK36 mutant)
# [5] = CMY-2 on pACYC177, ΔramR mutant
# [6] = CMY-2 on pACYC177, ΔramRΔ35 (ΔramRΔompK35 mutant)
# [7] = CMY-2 on pACYC177, ΔramRΔ35/36 (ΔramRΔompK35/36 mutant)
# [8] = CMY-2 on pACYC177, ΔramRΔ36 (ΔramRΔompK36 mutant)
# [9] = CTX-M-14 on pACYC177, WT (NVT1001), read-out: MIC
# [10] = CTX-M-14 on pACYC177, Δ35 (ΔompK35 mutant)
# [11] = CTX-M-14 on pACYC177, Δ35/36 (ΔompK35/36 mutant)
# [12] = CTX-M-14 on pACYC177, Δ36 (ΔompK36 mutant)
# [13] = CTX-M-14 on pACYC177, ΔramR mutant
# [14] = CTX-M-14 on pACYC177, ΔramRΔ35 (ΔramRΔompK35 mutant)
# [15] = CTX-M-14 on pACYC177, ΔramRΔ35/36 (ΔramRΔompK35/36 mutant)
# [16] = CTX-M-14 on pACYC177, ΔramRΔ36 (ΔramRΔompK36 mutant)
# [17] = CTX-M-15 on pACYC177, WT (NVT1001), read-out: MIC
# [18] = CTX-M-15 on pACYC177, Δ35 (ΔompK35 mutant)
# [19] = CTX-M-15 on pACYC177, Δ35/36 (ΔompK35/36 mutant)
# [20] = CTX-M-15 on pACYC177, Δ36 (ΔompK36 mutant)
# [21] = CTX-M-15 on pACYC177, ΔramR mutant
# [22] = CTX-M-15 on pACYC177, ΔramRΔ35 (ΔramRΔompK35 mutant)
# [23] = CTX-M-15 on pACYC177, ΔramRΔ35/36 (ΔramRΔompK35/36 mutant)
# [24] = CTX-M-15 on pACYC177, ΔramRΔ36 (ΔramRΔompK36 mutant)
# [25] = DHA-1-AmpR on pACYC177, WT (NVT1001), read-out: MIC
# [26] = DHA-1-AmpR on pACYC177, Δ35 (ΔompK35 mutant)
# [27] = DHA-1-AmpR on pACYC177, Δ35/36 (ΔompK35/36 mutant)
# [28] = DHA-1-AmpR on pACYC177, Δ36 (ΔompK36 mutant)
# [29] = DHA-1-AmpR on pACYC177, ΔramR mutant
# [30] = DHA-1-AmpR on pACYC177, ΔramRΔ35 (ΔramRΔompK35 mutant)
# [31] = DHA-1-AmpR on pACYC177, ΔramRΔ35/36 (ΔramRΔompK35/36 mutant)
# [32] = DHA-1-AmpR on pACYC177, ΔramRΔ36 (ΔramRΔompK36 mutant)
# [33] = SHV-12 on pACYC177, WT (NVT1001), read-out: MIC
# [34] = SHV-12 on pACYC177, Δ35 (ΔompK35 mutant)
# [35] = SHV-12 on pACYC177, Δ35/36 (ΔompK35/36 mutant)
# [36] = SHV-12 on pACYC177, Δ36 (ΔompK36 mutant)
# [37] = SHV-12 on pACYC177, ΔramR mutant
# [38] = SHV-12 on pACYC177, ΔramRΔ35 (ΔramRΔompK35 mutant)
# [39] = SHV-12 on pACYC177, ΔramRΔ35/36 (ΔramRΔompK35/36 mutant)
# [40] = SHV-12 on pACYC177, ΔramRΔ36 (ΔramRΔompK36 mutant)
# [41] = no supplemental plasmid, WT (NVT1001), read-out: MIC
# [42] = no supplemental plasmid, Δ35 (ΔompK35 mutant)
# [43] = no supplemental plasmid, Δ35/36 (ΔompK35/36 mutant)
# [44] = no supplemental plasmid, Δ36 (ΔompK36 mutant)
# [45] = no supplemental plasmid, ΔramR mutant
# [46] = no supplemental plasmid, ΔramRΔ35 (ΔramRΔompK35 mutant)
# [47] = no supplemental plasmid, ΔramRΔ35/36 (ΔramRΔompK35/36 mutant)
# [48] = no supplemental plasmid, ΔramRΔ36 (ΔramRΔompK36 mutant)
smiles,measurement,setting,value
C[C@H]1[C@H](NC(=O)/C(=N\OC(C)(C)C(=O)O)c2csc(N)n2)C(=O)N1S(=O)(=O)O [Aztreonam],MIC,[1],64 µg/mL
same,MIC,[2],128 µg/mL
same,MIC,[3],256 µg/mL
same,MIC,[4],64 µg/mL
same,MIC,[5],64 µg/mL
same,MIC,[6],64 µg/mL
same,MIC,[7],64 µg/mL
same,MIC,[8],64 µg/mL
same,MIC,[9],2 µg/mL
same,MIC,[10],16 µg/mL
same,MIC,[11],32 µg/mL
same,MIC,[12],2 µg/mL
same,MIC,[13],16 µg/mL
same,MIC,[14],16 µg/mL
same,MIC,[15],32 µg/mL
same,MIC,[16],16 µg/mL
same,MIC,[17],256 µg/mL
same,MIC,[18],> 256 µg/mL
same,MIC,[19],> 256 µg/mL
same,MIC,[20],> 256 µg/mL
same,MIC,[21],> 256 µg/mL
same,MIC,[22],> 256 µg/mL
same,MIC,[23],> 256 µg/mL
same,MIC,[24],> 256 µg/mL
same,MIC,[25],1 µg/mL
same,MIC,[26],8 µg/mL
same,MIC,[27],16 µg/mL
same,MIC,[28],1 µg/mL
same,MIC,[29],4 µg/mL
same,MIC,[30],4 µg/mL
same,MIC,[31],8 µg/mL
same,MIC,[32],8 µg/mL
same,MIC,[33],128 µg/mL
same,MIC,[34],> 256 µg/mL
same,MIC,[35],> 256 µg/mL
same,MIC,[36],128 µg/mL
same,MIC,[37],> 256 µg/mL
same,MIC,[38],> 256 µg/mL
same,MIC,[39],> 256 µg/mL
same,MIC,[40],> 256 µg/mL
same,MIC,[41],0.03 µg/mL
same,MIC,[42],0.25 µg/mL
same,MIC,[43],0.5 µg/mL
same,MIC,[44],0.06 µg/mL
same,MIC,[45],0.5 µg/mL
same,MIC,[46],0.5 µg/mL
same,MIC,[47],1 µg/mL
same,MIC,[48],1 µg/mL
CO/N=C(\C(=O)N[C@@H]1C(=O)N2C(C(=O)O)=C(COC(C)=O)CS[C@H]12)c1csc(N)n1 [Cefotaxime],MIC,[1],64 µg/mL
same,MIC,[2],128 µg/mL
same,MIC,[3],> 256 µg/mL
same,MIC,[4],> 256 µg/mL
same,MIC,[5],128 µg/mL
same,MIC,[6],128 µg/mL
same,MIC,[7],> 256 µg/mL
same,MIC,[8],> 256 µg/mL
same,MIC,[9],64 µg/mL
same,MIC,[10],128 µg/mL
same,MIC,[11],> 256 µg/mL
same,MIC,[12],> 256 µg/mL
same,MIC,[13],128 µg/mL
same,MIC,[14],128 µg/mL
same,MIC,[15],> 256 µg/mL
same,MIC,[16],> 256 µg/mL
same,MIC,[17],> 256 µg/mL
same,MIC,[18],> 256 µg/mL
same,MIC,[19],> 256 µg/mL
same,MIC,[20],> 256 µg/mL
same,MIC,[21],> 256 µg/mL
same,MIC,[22],> 256 µg/mL
same,MIC,[23],> 256 µg/mL
same,MIC,[24],> 256 µg/mL
same,MIC,[25],8 µg/mL
same,MIC,[26],16 µg/mL
same,MIC,[27],64 µg/mL
same,MIC,[28],16 µg/mL
same,MIC,[29],16 µg/mL
same,MIC,[30],16 µg/mL
same,MIC,[31],64 µg/mL
same,MIC,[32],64 µg/mL
same,MIC,[33],32 µg/mL
same,MIC,[34],32 µg/mL
same,MIC,[35],> 256 µg/mL
same,MIC,[36],32 µg/mL
same,MIC,[37],64 µg/mL
same,MIC,[38],64 µg/mL
same,MIC,[39],256 µg/mL
same,MIC,[40],256 µg/mL
same,MIC,[41],0.06 µg/mL
same,MIC,[42],0.125 µg/mL
same,MIC,[43],2 µg/mL
same,MIC,[44],0.25 µg/mL
same,MIC,[45],1 µg/mL
same,MIC,[46],1 µg/mL
same,MIC,[47],4 µg/mL
same,MIC,[48],4 µg/mL
